In patent US7235536B2, “Cellulose sulfate and other sulfated polysaccharides to prevent and treat papilloma virus infection and other infections” (Rush Presbyterian-St. Luke's Medical Center, priority 2000, dated 2007):

Assays:
BPV-1 = BPV-1 focus-forming assay, virus preincubated with compound (Table C); format: cell-based, bovine papilloma virus; conditions: C127 cell line
Description: In a similar study using the BPV-1 focus forming assay, the effect of the cellulose sulfate and dextran sulfate on BPV was tested. In this study, cellulose sulfate tested was as described above. Dextran sulfate used was from Dextran Products Limited (Lot DSM-122) prepared using dextan of average Mr of about 500,000 (based on viscosity) and is estimated to have a final average Mr greater than about 500,000 and may be about 1 to 1.1 million.
Microbicidal activity of the compounds was tested using the well-characterized BPV-1 focus-forming assay (Dvoretzky, I., R. Shober, S. K. Chattopadhyay, and D. R. Lowy. 1980. A quantitative in vitro focus assay for bovine papilloma virus. Virology 103:369-375), with modifications for microbicide testing (Hermonat, P. L., (1992) supra; Howett, M. K., et al. (1999) supra. The terms inhibiting or microbicidal activity when used are intended to refer broadly to microbe infection and/or microbe inactivating effect.
Aliquots of BPV-1 containing approximately 100-200 focus-forming units were preincubated with dilutions of compounds for 10 min at 37° C. prior to addition to cultures of mouse C127 cells. Cultures of C127 cells were set up in T25 tissue culture flasks (Corning, N.Y.), containing 3×10^5 cells per flask. Virus-compound mixtures in a total of 50 μl were then added to flasks in 1 ml of media, and an additional 3 ml of media added after 24 hrs culture. Media was changed every 3-4 days for a period of 2 weeks. Foci were enumerated following staining of the monolayer with crystal violet and counting stained foci microscopically. Each concentration of compound was tested in duplicate, and the mean±SD of foci number for the preincubation virus-drug concentration for each compound is shown below as Table C.
Clones were derived from the parental C127 cell line because of the consistent failure of BPV-1 to induce foci following several cell passages of the uncloned parental cell line. One clone, labeled C127-D10, which produced foci upon BPV-1 infection, was chosen for a repeat testing of the compounds. When this clone was tested for microbicidal activity, less compound was required to achieve high reduction in BPV-1-induced foci when compared to the uncloned parental-C127 cells.

[1] = tested on: Prevotella melaminogenica; assay: Broth method MIC; format: cell-based; conditions: for CS MIC: Broth (study 2)
Escherichia coli = assay: Microbial challenge of CS gel; format: cell-based
Description: (§1) 6% CS was prepared in water as a translucent gel. Twenty grams of the gel was placed in a plastic screw-cap centrifuge tube. The microbial inoculants were prepared, gently vortexed and 0.1 ml inoculant was aseptically pipetted into the 20.0 gram gel. This procedure was repeated for each microbial organism. The samples were incubated at room temperature (20-25° C.) for 14 days or 28 days. The microbes tested and their theoretical yields can be found in Table F. After 14 or 28 days incubation, dilutions (10^−1, 10^−2, 10^−3) of the gels were made in saline and 1 ml plated onto Sabouraud dextrose (Aspergillus and Candida) or onto tryptic soy (other microbes). The number of organisms that grew after 3-7 days at room temperature were counted.
(§2) In another study, CS was dissolved in water at the concentrations indicated below. No other ingredients, including preservatives, were added. The gels were challenged with microbes as described above except that the gels were examined for the presence of microbes after 1, 2, 3, 4 and 7 days. The amount of microbes origially inoculated in the gels is also shown below.

Staphylococcus aureus = assay: Microbial challenge of CS gel; format: cell-based
Description: as §1, §2

Substance: sodium cellulose sulfate
- inhibition of papilloma virus infectivity (BPV-1; 1 mg/ml): complete inhibition
- inhibition of papilloma virus infectivity (BPV-1; 10 to 100 μg/ml): moderate to high inhibition
- growth inhibition ([1]; at the concentrations tested): Neither one of the strains of Prevotella melaminogenica were inhibited
- CS MIC ([1]; rma# 5657): NI (not inhibited by 10 mg/ml (the highest concentration tested))
- CS MIC ([1]; rma# 9052): NI (not inhibited by 10 mg/ml (the highest concentration tested))
- inactivation of Escherichia (Escherichia coli; 6% CS gel): completely inactivated
- Day 14 CFU/g (Escherichia coli; 6% CS gel, ATCC 8739, room temperature, Day 14): 0 CFU/g
- Day 28 CFU/g (Escherichia coli; 6% CS gel, ATCC 8739, room temperature, Day 28): 0 CFU/g
- Escherichia coli CFU (Escherichia coli; CS 0.06% in water, 24 hours): 0 CFU × 10^5/ml
- Escherichia coli CFU (Escherichia coli; CS 0.06% in water, 48 hours): 1.15 CFU × 10^5/ml
- Escherichia coli CFU (Escherichia coli; CS 0.06% in water, 72 hours): 1.21 CFU × 10^5/ml
- Escherichia coli CFU (Escherichia coli; CS 0.06% in water, 96 hours): 0.13 CFU × 10^5/ml
- Escherichia coli CFU (Escherichia coli; CS 0.06% in water, 7 days): 1.12 CFU × 10^5/ml
- Escherichia coli CFU (Escherichia coli; CS 0.6% in water, 24 hours): 5.6 CFU × 10^5/ml
- Escherichia coli CFU (Escherichia coli; CS 0.6% in water, 48 hours): 5.81 CFU × 10^5/ml
- Escherichia coli CFU (Escherichia coli; CS 0.6% in water, 72 hours): 4.43 CFU × 10^5/ml
- Escherichia coli CFU (Escherichia coli; CS 0.6% in water, 96 hours): 6.92 CFU × 10^5/ml
- Escherichia coli CFU (Escherichia coli; CS 0.6% in water, 7 days): 4.39 CFU × 10^5/ml
- Escherichia coli CFU (Escherichia coli; CS 1.2% in water, 24 hours): 0.98 CFU × 10^5/ml
- Escherichia coli CFU (Escherichia coli; CS 1.2% in water, 48 hours): 3.125 CFU × 10^5/ml
- Escherichia coli CFU (Escherichia coli; CS 1.2% in water, 72 hours): 1.625 CFU × 10^5/ml
- Escherichia coli CFU (Escherichia coli; CS 1.2% in water, 96 hours): 4.54 CFU × 10^5/ml
- Escherichia coli CFU (Escherichia coli; CS 1.2% in water, 7 days): 3.78 CFU × 10^5/ml
- Escherichia coli CFU (Escherichia coli; CS 6% in water, 24 hours): 0 CFU × 10^5/ml
- Escherichia coli CFU (Escherichia coli; CS 6% in water, 48 hours): 0.01 CFU × 10^5/ml
- Escherichia coli CFU (Escherichia coli; CS 6% in water, 72 hours): 0 CFU × 10^5/ml
- Escherichia coli CFU (Escherichia coli; CS 6% in water, 96 hours): 0 CFU × 10^5/ml
- Escherichia coli CFU (Escherichia coli; CS 6% in water, 7 days): 0 CFU × 10^5/ml
- inactivation of Escherichia (Escherichia coli; lower CS concentrations (except 0.06% CS gel), no growth occurs): either not inactivated or only to a minor extent
- inactivation of Staphylococcus (Staphylococcus aureus; 0.06% CS gel, slow growth thereafter): initially inactivated most Staphylococcus
- inactivation of Staphyloccus (Staphylococcus aureus; 6% CS gel): completely inactivated
- Day 14 CFU/g (Staphylococcus aureus; 6% CS gel, ATCC 6538, room temperature, Day 14): 0 CFU/g
- Day 28 CFU/g (Staphylococcus aureus; 6% CS gel, ATCC 6538, room temperature, Day 28): 0 CFU/g
- Staphylococcus aureus CFU (Staphylococcus aureus; CS 0.06% in water, 24 hours): 0.625 CFU × 10^5/ml
- Staphylococcus aureus CFU (Staphylococcus aureus; CS 0.06% in water, 48 hours): 0.715 CFU × 10^5/ml
- Staphylococcus aureus CFU (Staphylococcus aureus; CS 0.06% in water, 72 hours): 1.04 CFU × 10^5/ml
- Staphylococcus aureus CFU (Staphylococcus aureus; CS 0.06% in water, 96 hours): 2.06 CFU × 10^5/ml
- Staphylococcus aureus CFU (Staphylococcus aureus; CS 0.06% in water, 7 days): 5.815 CFU × 10^5/ml
- Staphylococcus aureus CFU (Staphylococcus aureus; CS 0.6% in water, 24 hours): 5.17 CFU × 10^5/ml
- Staphylococcus aureus CFU (Staphylococcus aureus; CS 0.6% in water, 48 hours): 5.53 CFU × 10^5/ml
- Staphylococcus aureus CFU (Staphylococcus aureus; CS 0.6% in water, 72 hours): 4.82 CFU × 10^5/ml
- Staphylococcus aureus CFU (Staphylococcus aureus; CS 0.6% in water, 96 hours): 6.41 CFU × 10^5/ml
- Staphylococcus aureus CFU (Staphylococcus aureus; CS 0.6% in water, 7 days): 3.25 CFU × 10^5/ml
- Staphylococcus aureus CFU (Staphylococcus aureus; CS 1.2% in water, 24 hours): 2.71 CFU × 10^5/ml
- Staphylococcus aureus CFU (Staphylococcus aureus; CS 1.2% in water, 48 hours): 4.725 CFU × 10^5/ml
- Staphylococcus aureus CFU (Staphylococcus aureus; CS 1.2% in water, 72 hours): 2.39 CFU × 10^5/ml
- Staphylococcus aureus CFU (Staphylococcus aureus; CS 1.2% in water, 96 hours): 3.96 CFU × 10^5/ml
- Staphylococcus aureus CFU (Staphylococcus aureus; CS 1.2% in water, 7 days): 3.55 CFU × 10^5/ml
- Staphylococcus aureus CFU (Staphylococcus aureus; CS 6% in water, 24 hours): 0 CFU × 10^5/ml
- Staphylococcus aureus CFU (Staphylococcus aureus; CS 6% in water, 48 hours): 0.005 CFU × 10^5/ml
- Staphylococcus aureus CFU (Staphylococcus aureus; CS 6% in water, 72 hours): 0 CFU × 10^5/ml
- Staphylococcus aureus CFU (Staphylococcus aureus; CS 6% in water, 96 hours): 0 CFU × 10^5/ml
- Staphylococcus aureus CFU (Staphylococcus aureus; CS 6% in water, 7 days): 0 CFU × 10^5/ml
- inactivation of Staphyloccus (Staphylococcus aureus; lower CS concentrations): not inactivated but growth was prevented
